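Interpolation was linear, between the two tested concentrations surrounding the appropriate level; five concentrations were tested over 48 hours in 96-well plates. GI50 is the concentration that inhibits growth by half.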 Activity calls are given as the source filed them. Rule as the data show it: active = GI50 up to about 1.1 µM and inactive = higher. Where a SMILES comes first, the peptide text is derived from it. [ ]: non-standard residue; d: D form. Ac5c = NC1(C(=O)O)CCCC1
Key:
Experiment in all cases: growth of human tumour cells (NCI), 48 h
HCC 2998 = tested on: HCC 2998
HOP-92 = tested on: HOP-92
OVCAR-8 = tested on: OVCAR-8
Hs-578T = tested on: Hs-578T
Malme-3M = tested on: Malme-3M
HL-60 = tested on: HL-60
OVCAR-5 = tested on: OVCAR-5
NCI-H522 = tested on: NCI-H522
SNB-75 = tested on: SNB-75
UACC-257 = tested on: UACC-257
SN12C = tested on: SN12C
HCT-15 = tested on: HCT-15
SF-295 = tested on: SF-295
SK-MEL-28 = tested on: SK-MEL-28
DU-145 = tested on: DU-145
A498 = tested on: A498
OVCAR-4 = tested on: OVCAR-4
RPMI-8226 = tested on: RPMI-8226
CAKI-1 = tested on: CAKI-1
MDA-MB-231 = tested on: MDA-MB-231

SMILES | GI50 (HCC 2998) | GI50 (HOP-92) | GI50 (OVCAR-8) | GI50 (Hs-578T) | GI50 (Malme-3M) | GI50 (HL-60) | GI50 (OVCAR-5) | GI50 (NCI-H522) | GI50 (SNB-75) | GI50 (UACC-257) | GI50 (SN12C) | GI50 (HCT-15) [µM] | GI50 (SF-295) | GI50 (SK-MEL-28) | GI50 (DU-145) | GI50 (A498) | GI50 (OVCAR-4) | GI50 (RPMI-8226) | GI50 (CAKI-1) | GI50 (MDA-MB-231)
Cc1noc(NC(=O)Nc2ccccc2F)c1C#N | 2.12 µM (inactive) | > 100 µM (inactive) | > 90.8 µM (inactive) | > 34.4 µM (inactive) | 28.8 µM (inactive) | 84.5 µM (inactive) | > 28.4 µM (inactive) | 7.93 µM (inactive) | 97.1 µM (inactive) | 30.9 µM (inactive) | 16.1 µM (inactive) | 55.3 | 41.5 µM (inactive) | > 100 µM (inactive) | 49.8 µM (inactive) | > 35 µM (inactive) | 69.8 µM (inactive) | > 74.8 µM (inactive) | > 100 µM (inactive) | 
CCOC(=O)C(CCSC)(CCSC)C(=O)OCC | > 100 µM (inactive) |  | > 100 µM (inactive) | > 100 µM (inactive) | > 100 µM (inactive) |  | > 100 µM (inactive) | > 100 µM (inactive) | > 100 µM (inactive) | > 100 µM (inactive) | > 100 µM (inactive) | > 100 | > 100 µM (inactive) | > 100 µM (inactive) | > 100 µM (inactive) | > 100 µM (inactive) | > 100 µM (inactive) | > 100 µM (inactive) | > 100 µM (inactive) | > 100 µM (inactive)
Clc1ccc2nc3[nH]nc(Cl)c3nc2c1 | 38.4 µM (inactive) |  | 71.3 µM (inactive) | 22.7 µM (inactive) |  |  | 48.1 µM (inactive) |  | 48.6 µM (inactive) | 66.8 µM (inactive) | 38.5 µM (inactive) | > 100 | 72.6 µM (inactive) | 84.7 µM (inactive) | 50.7 µM (inactive) | 46.2 µM (inactive) | 63.2 µM (inactive) | 47.4 µM (inactive) | 49.1 µM (inactive) | 57.7 µM (inactive)
CC(=O)NC1C(OCC(=O)NCCNc2ccc([N+](=O)[O-])c3[nH]c4ccccc4c(=O)c23)C(O)C(CO)OC1(C)OCc1ccccc1 (configuration not stated) | > 100 µM (inactive) |  | > 100 µM (inactive) | > 100 µM (inactive) | > 10 µM (inactive) |  | > 100 µM (inactive) | > 100 µM (inactive) | > 100 µM (inactive) | > 100 µM (inactive) | > 100 µM (inactive) | > 100 | > 100 µM (inactive) |  | > 100 µM (inactive) | > 100 µM (inactive) | > 100 µM (inactive) | > 100 µM (inactive) | > 100 µM (inactive) | > 100 µM (inactive)
OC(c1cc2ccccc2o1)c1cc2ccccc2s1 (configuration not stated) | > 10 µM (inactive) | > 10 µM (inactive) | > 10 µM (inactive) | 9.53 µM (inactive) |  | > 10 µM (inactive) | > 10 µM (inactive) | > 10 µM (inactive) | > 10 µM (inactive) | > 10 µM (inactive) | > 10 µM (inactive) | > 10 | > 10 µM (inactive) | > 10 µM (inactive) | > 10 µM (inactive) |  | > 10 µM (inactive) | > 10 µM (inactive) | > 10 µM (inactive) | > 10 µM (inactive)
O=[N+]([O-])c1ccc2c(c1)c(OCc1ccccc1)nn2Cc1ccccc1 | 58.9 µM (inactive) |  | > 100 µM (inactive) | 52.8 µM (inactive) | 78.5 µM (inactive) | > 100 µM (inactive) | > 100 µM (inactive) | 23 µM (inactive) |  | > 100 µM (inactive) | > 100 µM (inactive) | 53 | 51.2 µM (inactive) | 72.6 µM (inactive) | > 100 µM (inactive) | 33 µM (inactive) |  | > 100 µM (inactive) | > 100 µM (inactive) | > 100 µM (inactive)
C/C(=C\COP(=O)(O)OP(=O)(O)O)CC/C=C(\C)CNc1ccc([N+](=O)[O-])cc1 |  | > 100 µM (inactive) | > 100 µM (inactive) | > 100 µM (inactive) | > 100 µM (inactive) | > 100 µM (inactive) | > 100 µM (inactive) | > 100 µM (inactive) | > 100 µM (inactive) | 71.8 µM (inactive) | > 100 µM (inactive) | > 100 | > 100 µM (inactive) | > 100 µM (inactive) | > 100 µM (inactive) |  | > 100 µM (inactive) | > 100 µM (inactive) | > 100 µM (inactive) | > 100 µM (inactive)
CC1=CC(C)C(O)C(C)/C=C\C(O)C/C=C(/C)C(=O)CC(O)C(C)\C=C/C=C\C=C/C(=O)NC2=C(O)C(=O)c3c(cc(C)c(O)c3C1=O)C2=O (configuration not stated) | 86.1 µM (inactive) | > 100 µM (inactive) | > 100 µM (inactive) | 46 µM (inactive) |  | > 100 µM (inactive) | > 100 µM (inactive) | > 100 µM (inactive) | 25 µM (inactive) | > 100 µM (inactive) | > 100 µM (inactive) | > 100 | > 100 µM (inactive) | > 100 µM (inactive) | 76.6 µM (inactive) |  | > 100 µM (inactive) | > 100 µM (inactive) | > 100 µM (inactive) | > 100 µM (inactive)
COC(=O)[C@@]12CSC[C@]1(C(=O)OC)N[C@@H](c1ccccc1O)C2 | > 100 µM (inactive) | > 100 µM (inactive) | > 100 µM (inactive) | > 100 µM (inactive) | > 100 µM (inactive) | > 100 µM (inactive) | > 100 µM (inactive) | > 100 µM (inactive) | > 100 µM (inactive) | > 100 µM (inactive) | > 100 µM (inactive) | > 100 | > 100 µM (inactive) | > 100 µM (inactive) | > 100 µM (inactive) | > 100 µM (inactive) | > 100 µM (inactive) | > 100 µM (inactive) | > 100 µM (inactive) | 
Cc1ccnc(NC(NC(=O)c2ccccc2)(C(F)(F)F)C(F)(F)F)c1 | > 100 µM (inactive) | > 100 µM (inactive) | > 100 µM (inactive) | > 100 µM (inactive) | > 100 µM (inactive) | > 100 µM (inactive) | > 100 µM (inactive) | > 100 µM (inactive) | > 100 µM (inactive) | > 100 µM (inactive) | > 100 µM (inactive) | > 100 | > 100 µM (inactive) | > 100 µM (inactive) | > 100 µM (inactive) |  | > 100 µM (inactive) | 18.2 µM (inactive) | > 100 µM (inactive) | > 100 µM (inactive)
Cc1ccccc1N/N=C1\C(=O)Nc2ccccc21 | > 100 µM (inactive) |  | > 100 µM (inactive) | > 100 µM (inactive) |  | > 100 µM (inactive) | > 100 µM (inactive) | 96.8 µM (inactive) | > 100 µM (inactive) | > 100 µM (inactive) | 88.9 µM (inactive) | > 100 | > 100 µM (inactive) | > 100 µM (inactive) | > 100 µM (inactive) |  | > 100 µM (inactive) | > 100 µM (inactive) | > 100 µM (inactive) | > 100 µM (inactive)
Clc1ccc(Cc2nc3ccccc3nc2-c2cccc(Cl)c2)cc1 | 1.85 µM (inactive) | 1.7 µM (inactive) | 3.56 µM (inactive) | 3.47 µM (inactive) | 2.25 µM (inactive) | 2.51 µM (inactive) | 7.38 µM (inactive) | 1.61 µM (inactive) |  | 13.8 µM (inactive) | 2.94 µM (inactive) | 1.66 | 17.1 µM (inactive) |  | 14.2 µM (inactive) |  | 1.51 µM (inactive) | 0.405 µM (active) | 2.73 µM (inactive) | 2.47 µM (inactive)
O=[N+]([O-])c1cc(/N=N/c2c(O)ccc3cc(S(=O)(=O)O)ccc23)c(O)c([N+](=O)[O-])c1 |  | > 100 µM (inactive) | 35.7 µM (inactive) | > 100 µM (inactive) | > 100 µM (inactive) | 11.1 µM (inactive) | > 100 µM (inactive) | > 100 µM (inactive) | > 100 µM (inactive) | > 100 µM (inactive) | > 100 µM (inactive) | 51.8 | 44.9 µM (inactive) | > 100 µM (inactive) | > 100 µM (inactive) |  | > 100 µM (inactive) | > 100 µM (inactive) | > 100 µM (inactive) | > 100 µM (inactive)
O/N=N\c1nc(-c2ccccn2)nc2ccccc12 | 9.71 µM (inactive) |  | 12.4 µM (inactive) | > 100 µM (inactive) | 1.24 µM (inactive) | 0.984 µM (active) | 27.1 µM (inactive) | 1.89 µM (inactive) | 20.3 µM (inactive) | 7.69 µM (inactive) | 23 µM (inactive) | 1.53 | 22 µM (inactive) | 16 µM (inactive) | 15 µM (inactive) | 32.4 µM (inactive) | 8.05 µM (inactive) |  | 2.12 µM (inactive) | 13.3 µM (inactive)
Cc1nnc2sc(-c3ccc(N)cc3)nn12 | > 100 µM (inactive) | > 100 µM (inactive) | > 100 µM (inactive) | 89.3 µM (inactive) | > 100 µM (inactive) | > 100 µM (inactive) | > 100 µM (inactive) | > 100 µM (inactive) | 21.3 µM (inactive) | > 100 µM (inactive) | > 100 µM (inactive) | > 100 | > 100 µM (inactive) | > 100 µM (inactive) | > 100 µM (inactive) |  | > 100 µM (inactive) | > 100 µM (inactive) | > 100 µM (inactive) | > 100 µM (inactive)
COC(=O)C1(NC(=O)C(C)NC(=O)C(CCCCN)NC(=O)C(CC(C)C)NC(C)=O)CCCC1 (configuration not stated) (Ac-LKA[Ac5c]-OMe; configuration not given here) | > 100 µM (inactive) |  | > 100 µM (inactive) | > 100 µM (inactive) |  | > 100 µM (inactive) |  | > 100 µM (inactive) | > 100 µM (inactive) | > 100 µM (inactive) | > 100 µM (inactive) | > 100 | > 100 µM (inactive) | > 100 µM (inactive) |  |  | > 10 µM (inactive) | > 100 µM (inactive) |  | > 100 µM (inactive)
